Where two headings read alike, the source gives them in different places.
Experiments:
Format in all cases: cell-based
[1] = system: Staphylococcus aureus 0100 (ATCC 29213); test: MIC assay, quality control strain S. aureus ATCC 29213; conditions: ATCC29213, S. aureus ATCC 29213, repeat runs 22FEB06-09MAR06, combinations at 2.5:1, read-out: Minimal Inhibitory Concentration, quality control
Protocol: (§1) Antibiotics: novobiocin, tetracycline, minocycline, oxacillin, and vancomycin were all purchased from Sigma-Aldrich. Linezolid was obtained from Pfizer, Inc. Novobiocin/tetracycline and novobiocin/minocycline were tested in a 2.5:1 ratio to mimic the serum levels. (Vavra, J. J., 1967, Development of resistance to novobiocin, tetracycline, and novobiocin-tetracycline combinations in Staphylococcus aureus populations, J. Bacteriol 93(3):801). Compounds were tested across a concentration range consisting of 11 two-fold serial dilutions of test agent.
(§2) Stock solutions were prepared in sterile deionized water; novobiocin stock concentration was 1600 μg/mL and all other drugs stock solutions were prepared at 640 μg/mL. The stock solutions were allowed to sit at room temperature for one hour to auto-sterilize prior to use in the test. All compounds were in solution in water. The control agent was vancomycin hydrochloride, Sigma Chemical Lot # 015K0825.
(§3) The test organisms for the assay were 52 MSSA, 52 MRSA, 8 VISA, 7 VISE, and 3 LRSA isolates. Quality control strains included Staphylococcus aureus 0100 (ATCC 29213) and Enterococcus faecalis (ATCC 29212).
(§4) The MIC assay was performed according to published NCCLS guidelines. (National Committee for Clinical Laboratory Standards, Methods for Dilution Antimicrobial Susceptibility Tests for Bacteria that Grow Aerobically; Approved Standard-Sixth Edition, NCCLS Document M7-A6 [ISBN 1-56238-486-4], NCCLS, 940 West Valley Road, Suite 1400, Wayne, Pa. 19087-1898 USA, 2003). The test medium was Mueller Hinton II Broth for all organisms.

[2] = system: Vancomycin-intermediate Staphylococcus epidermidis Isolates; test: MIC assay (NCCLS broth dilution), VISE isolates; conditions: Staphylococcus epidermidis; for MIC: read-out: Minimal Inhibitory Concentration
Protocol: as §1, §2, §3, §4

[3] = system: Methicillin-Resistant Staphylococcus aureus Isolates; test: MIC assay (NCCLS broth dilution), MRSA clinical isolates; conditions: Staphylococcus aureus; for MIC: read-out: Minimal Inhibitory Concentration
Protocol: as §1, §2, §3, §4

[4] = 52 MRSA isolates, combinations at 2.5:1, given as NB/partner

CN(C)[C@@H]1C(O)=C(C(N)=O)C(=O)[C@@]2(O)C(O)=C3C(=O)c4c(O)cccc4[C@@](C)(O)[C@H]3C[C@@H]12 [TE, tetracycline]
MIC [1]: 0.5 µg/mL | MIC ([2]; VISE isolate 2020, 09MAR06): > 16 µg/mL | MIC ([2]; VISE isolate 2021, 09MAR06): 0.25 µg/mL | MIC ([2]; VISE isolate 2022, 03MAR06): 2 µg/mL | MIC ([2]; VISE isolate 2023, 03MAR06): 0.5 µg/mL | MIC50 ([2]; 4 VISE isolates, combinations at 2.5:1): 0.5 µg/mL | MIC ([3]; MRSA isolate 757, 24FEB06): > 16 µg/mL | MIC ([3]; MRSA isolate 758, 03MAR06): 1 µg/mL | MIC ([3]; MRSA isolate 758, 24FEB06): 0.5 µg/mL | MIC ([3]; MRSA isolate 760, 03MAR06): 1 µg/mL | MIC ([3]; MRSA isolate 760, 24FEB06): 0.5 µg/mL | MIC ([3]; MRSA isolate 763, 22FEB06): 0.5 µg/mL | MIC ([3]; MRSA isolate 765, 22FEB06): 0.5 µg/mL | MIC ([3]; MRSA isolate 766, 22FEB06): 1 µg/mL | MIC ([3]; MRSA isolate 767, 22FEB06): 0.5 µg/mL | MIC ([3]; MRSA isolate 768, 22FEB06): 0.5 µg/mL | MIC ([3]; MRSA isolate 769, 22FEB06): > 16 µg/mL | MIC ([3]; MRSA isolate 770, 22FEB06): 0.5 µg/mL | MIC ([3]; MRSA isolate 771, 22FEB06): 0.5 µg/mL | MIC ([3]; MRSA isolate 772, 22FEB06): 0.5 µg/mL | MIC ([3]; MRSA isolate 773, 24FEB06): 0.5 µg/mL | MIC ([3]; MRSA isolate 774, 24FEB06): 0.5 µg/mL | MIC ([3]; MRSA isolate 775, 24FEB06): 0.5 µg/mL | MIC ([3]; MRSA isolate 776, 24FEB06): 0.5 µg/mL | MIC ([3]; MRSA isolate 777, 24FEB06): 0.5 µg/mL | MIC ([3]; MRSA isolate 778, 24FEB06): 0.25 µg/mL | MIC ([3]; MRSA isolate 886, 24FEB06): 0.5 µg/mL | MIC ([3]; MRSA isolate 887, 24FEB06): 0.5 µg/mL | MIC ([3]; MRSA isolate 888, 24FEB06): 0.5 µg/mL | MIC ([3]; MRSA isolate 889, 24FEB06): 1 µg/mL | MIC ([3]; MRSA isolate 1004, 24FEB06): 16 µg/mL | MIC ([3]; MRSA isolate 1010, 22FEB06): 4 µg/mL | MIC ([3]; MRSA isolate 1012, 22FEB06): 1 µg/mL | MIC ([3]; MRSA isolate 1013, 22FEB06): 0.5 µg/mL | MIC ([3]; MRSA isolate 1014, 22FEB06): 0.5 µg/mL | MIC ([3]; MRSA isolate 1015, 22FEB06): 0.5 µg/mL | MIC ([3]; MRSA isolate 1016, 22FEB06): 0.5 µg/mL | MIC ([3]; MRSA isolate 1017, 22FEB06): 0.5 µg/mL | MIC ([3]; MRSA isolate 1021, 22FEB06): 0.5 µg/mL | MIC ([3]; MRSA isolate 1022, 22FEB06): 0.5 µg/mL | MIC ([3]; MRSA isolate 1023, 22FEB06): 0.5 µg/mL | MIC ([3]; MRSA isolate 1024, 22FEB06): 0.5 µg/mL | MIC ([3]; MRSA isolate 1025, 22FEB06): 0.5 µg/mL | MIC ([3]; MRSA isolate 1135, 22FEB06): 0.5 µg/mL | MIC ([3]; MRSA isolate 1136, 22FEB06): 0.5 µg/mL | MIC ([3]; MRSA isolate 1137, 22FEB06): 0.5 µg/mL | MIC ([3]; MRSA isolate 1138, 22FEB06): 1 µg/mL | MIC ([3]; MRSA isolate 1222, 03MAR06): 0.5 µg/mL | MIC ([3]; MRSA isolate 1222, 24FEB06): 0.5 µg/mL | MIC ([3]; MRSA isolate 1653, 03MAR06): 0.25 µg/mL | MIC ([3]; MRSA isolate 1658, 03MAR06): 0.5 µg/mL | MIC ([3]; MRSA isolate 1659, 03MAR06): 0.25 µg/mL | MIC ([3]; MRSA isolate 1661, 03MAR06): 0.5 µg/mL | MIC ([3]; MRSA isolate 1729, 03MAR06): > 16 µg/mL | MIC ([3]; MRSA isolate 1730, 24FEB06): 0.5 µg/mL | MIC ([3]; MRSA isolate 2009, 24FEB06): > 16 µg/mL | MIC ([3]; MRSA isolate 2010, 24FEB06): 0.5 µg/mL | MIC ([3]; MRSA isolate 2011, 24FEB06): > 16 µg/mL | MIC50 [3, 4]: 0.5 µg/mL | MIC90 [3, 4]: 16 µg/mL
